Measured values reported in patent US12258332B2, “ASGPR cell surface receptor binding compounds and conjugates” (Lycia Therapeutics, Inc., priority 2021, dated 2025).
“Also recorded” adds a separate entry of the source.

Key:
[1] = tested on: HepG2 cells; experiment: Uptake of IgG2a antibody conjugates into HepG2 cells; format: cell-based, human; conditions: one hour incubation
Description: The uptake of antibody conjugates of exemplary M6PR or ASGPR binding compounds was assessed in Hep G2 cells, using a method similar to that described in Example above.

[2] = tested on: HepG2 cells; experiment: Uptake of Alexa488-labelled target IgE bound to omalizumab (OMA) conjugates in HepG2 cells, flow cytometry; format: cell-based, human; conditions: omalizumab (anti-IgE) conjugate bound to IgE-Alexa488, equal molar ratios; 1 hour
Description: (§1) The omalizumab conjugates of Example 60 were bound to IgE-Alexa488 (prepared according to Example 62), as follows: equal molar ratios of omalizumab (anti-IgE) conjugate and IgE-Alexa488 were added in tissue culture media for 30 minutes at room temperature. The resulting anti-IgE conjugate:IgE antibody-Alexa488 compositions were added to HepG2 cells (100 k cells/50 ul per well, n=2), and Alexa488 fluorescence levels in the cells were measured at 1 hour by flow cytometry. As the fluorescently labelled target (IgE antibody) accumulates in cells, the fluorescence presents a way to measure total intracellular uptake by cells over time.
as §1, with “OMA Ab” for “The omalizumab”, “example compounds I-160-I-163 and I-141” for “Example 60”, “by adapting procedure in” for “according to”, “61),” for “62),”, “OMA(anti-IgE)” for “omalizumab (anti-IgE)”

[3] = Pharmacokinetic study of OMA-linked compounds in mice, serum hIgG by ELISA; format: in vivo; conditions: IV 5 mg/kg, female C57BL/6 mice, up to 168 hours
Description: Pharmacokinetic (PK) studies were undertaken to determine the pharmacokinetic profile of various OMA linked example compounds (I-161-I-163).
Protocol: Female C57BL/6 mice are dosed via IV with 5 mg/kg of OMA-example compounds, and OMA-reference. Serum samples are collected at 0.083, 0.25, 0.5, 1, 2, 4, 8, 24, 48, 72, and 168 hours after dosing with 3 animals per timepoint.
Serum hIgG concentrations were measured by ELISA.

[4] = tested on: IgE; experiment: Pharmacodynamic study: clearance of target IgE by OMA conjugates in mice, serum hIgE by ELISA; format: in vivo, C57BL/6 mice; conditions: 0.1 mg/kg of OMA conjugate, IgE 1 mg/kg
Description: Protocol: Female C57BL/6 mice were IV dosed 1 mg/kg of IgE followed by 0.1, 0.3, 1, or 3 mg/kg of OMA-I-163 16 hours later. Serum samples were collected at 0 (pre-bleed), 1, 4, and 24 hours after OMA-I-163 dose with 3 animals per timepoint.
Serum hIgE and hIgG concentrations were measured by ELISA.
Protocol: Female C57BL/6 mice were IV dosed 1 mg/kg of IgE followed by 0.1 mg/kg of OMA-I-163, OMA-I-162, OMA-I-161, and OMA-I-160 16 hours later. Serum samples were collected at 0 (pre-bleed), 1, 4, and 24 hours after LYTAC dose with 3 animals per timepoint.
Serum concentrations were measured by Elisa.

O=C(CCOCCOCCOCCOCCn1cc(CCCCNC(=S)Nc2ccc(O[C@H]3O[C@H](CCP(=O)(O)O)[C@@H](O)[C@H](O)[C@@H]3O)cc2)nn1)Oc1c(F)c(F)c(F)c(F)c1F [Compound 520, reference compound]
HepG2 cellular uptake of antibody conjugate (cell fluorescence, MFI) [1]: comparable HepG2 cellular uptake; also recorded: comparable robust uptake into HepG2 cells

CC(=O)N[C@H]1[C@H](OCCCCC(=O)NCCCNC(=O)CCOCC(COCCC(=O)NCCCNC(=O)CCCCO[C@@H]2O[C@H](CO)[C@H](O)[C@H](O)[C@H]2NC(C)=O)(COCCC(=O)NCCCNC(=O)CCCCO[C@@H]2O[C@H](CO)[C@H](O)[C@H](O)[C@H]2NC(C)=O)NC(=O)CCCCCCCCCCC(=O)Oc2c(F)c(F)c(F)c(F)c2F)O[C@H](CO)[C@H](O)[C@@H]1O [Compound 1209]
HepG2 cellular uptake of antibody conjugate (cell fluorescence, MFI) [1]: comparable HepG2 cellular uptake

CC(=O)N[C@H]1[C@H](OCCCCC(=O)NCCCNC(=O)CCOCC(COCCC(=O)NCCCNC(=O)CCCCO[C@@H]2O[C@H](CO)[C@H](O)[C@H](O)[C@H]2NC(C)=O)(COCCC(=O)NCCCNC(=O)CCCCO[C@@H]2O[C@H](CO)[C@H](O)[C@H](O)[C@H]2NC(C)=O)NC(=O)CCCCCCCCCCCN2C(=O)C=CC2=O)O[C@H](CO)[C@H](O)[C@@H]1O [Compound 1210]
HepG2 cellular uptake of antibody conjugate (cell fluorescence, MFI) [1]: comparable HepG2 cellular uptake

CC(=O)N[C@H]1[C@H](OCCCCC(=O)NCCCNC(=O)CCOCC(COCCC(=O)NCCCNC(=O)CCCCO[C@@H]2O[C@H](CO)[C@H](O)[C@H](O)[C@H]2NC(C)=O)(COCCC(=O)NCCCNC(=O)CCCCO[C@@H]2O[C@H](CO)[C@H](O)[C@H](O)[C@H]2NC(C)=O)NC(=O)CCOCCOCCOCCOCCC(=O)Oc2c(F)c(F)c(F)c(F)c2F)O[C@H](CO)[C@H](O)[C@@H]1O [Compound I-145]
relative uptake activity of Alexa488 labeled-target IgE in HepG2 cells [2]: superior uptake to conjugates having a valency of 2 or 1

CO[C@@H]1O[C@H](CO)[C@H](O)[C@H](O)[C@H]1NC(=O)COCCc1cn(CCOCCOCCNC(=O)CCC(CCC(=O)NCCOCCOCCn2cc(CCOCC(=O)N[C@H]3[C@H](OC)O[C@H](CO)[C@H](O)[C@@H]3O)nn2)(CCC(=O)NCCOCCOCCn2cc(CCOCC(=O)N[C@H]3[C@H](OC)O[C@H](CO)[C@H](O)[C@@H]3O)nn2)NC(=O)CCCCCCCCCCC(=O)Oc2c(F)c(F)c(F)c(F)c2F)nn1 [Compound I-155]
relative uptake activity of Alexa488 labeled-target IgE in HepG2 cells [2]: less active than the 1-position linked conjugate

CC(=O)N[C@@H]1[C@@H](O)[C@@H](O)[C@@H](CO)O[C@H]1Cc1cn(CCOCCOCCOCCNC(=O)CCC(CCC(=O)NCCOCCOCCOCCn2cc(C[C@@H]3O[C@H](CO)[C@H](O)[C@H](O)[C@H]3NC(C)=O)nn2)(CCC(=O)NCCOCCOCCOCCn2cc(C[C@@H]3O[C@H](CO)[C@H](O)[C@H](O)[C@H]3NC(C)=O)nn2)NC(=O)CCCCCCCCCCC(=O)NCCN2C(=O)C=CC2=O)nn1 [Compound I-160]
relative uptake activity of Alexa488 labeled-target IgE in HepG2 cells [2]: most active anomeric position variants
PK profile / clearance of OMA-linked compound (serum hIgG) [3]: distinct PK profiles from reference compound I-163
IgE clearance efficiency compared to reference OMA-I-163 [4]: clear IgE more efficiently than the reference compound

CC(=O)N[C@@H]1[C@@H](O)[C@@H](O)[C@@H](CO)C[C@H]1n1cc(COCCOCCOCCNC(=O)CCC(CCC(=O)NCCOCCOCCOCc2cn([C@@H]3O[C@H](CO)[C@H](O)[C@H](O)[C@H]3NC(C)=O)nn2)(CCC(=O)NCCOCCOCCOCc2cn([C@@H]3O[C@H](CO)[C@H](O)[C@H](O)[C@H]3NC(C)=O)nn2)NC(=O)CCCCCCCCCCC(=O)NCCN2C(=O)C=CC2=O)nn1 [Compound I-161]
relative uptake activity of Alexa488 labeled-target IgE in HepG2 cells [2]: essentially identical activity to the reference conjugate; also recorded: most active anomeric position variants
PK profile / clearance of OMA-linked compound (serum hIgG) [3]: distinct PK profiles from reference compound I-163
IgE clearance efficiency compared to reference OMA-I-163 [4]: clear IgE more efficiently than the reference compound

CC(=O)N[C@@H]1[C@@H](O)[C@@H](O)[C@@H](CO)O[C@H]1SCCC(=O)NCCCCCNC(=O)CCOCC(COCCC(=O)NCCCCCNC(=O)CCS[C@@H]1O[C@H](CO)[C@H](O)[C@H](O)[C@H]1NC(C)=O)(COCCC(=O)NCCCCCNC(=O)CCS[C@@H]1O[C@H](CO)[C@H](O)[C@H](O)[C@H]1NC(C)=O)NC(=O)CCCCCCCCCCC(=O)NCCN1C(=O)C=CC1=O [Compound I-162]
relative uptake activity of Alexa488 labeled-target IgE in HepG2 cells [2]: most active anomeric position variants
PK profile / clearance of OMA-linked compound (serum hIgG) [3]: distinct PK profiles from reference compound I-163
IgE clearance efficiency compared to reference OMA-I-163 [4]: clear IgE more efficiently than the reference compound
